Reference: publication PMC10400630, “Resensitizing multidrug-resistant Gram-negative bacteria to carbapenems and colistin using disulfiram” (Communications Biology, 2023)
Positions of bridges follow the written chain, without caps; N, C: chain ends. Non-standard residues stand in square brackets, D forms with d. Residues, ends and D or L forms follow the SMILES beside them. *: point of attachment. Heptanoyl(5-Me) = CCC(C)CCCC(=O)*; Dab = NCC[C@H](N)C(=O)O

Key:
E. coli B2 [1] = test system: T1, E. coli B2; experiment: microbe, parasite or virus in culture; parameters: checkerboard broth microdilution, antibiotic alone, absorbance at 600 nm; conditions: antibiotic alone, without DSF; for MIC: Escherichia coli, B2
T1 construct: B2
Source text: (§1) The fractional inhibitory concentration index (FICI) value was used to evaluate the drug interaction of two compounds (A and B) and calculated as the sum of FICIA and FICIB. […] To validate the potentiation, we further evaluated these combinations on several types of Gram-negative bacteria, including drug-sensitive strains, MCR-producing Enterobacterales and MBL-positive Enterobacteriaceae.

NDM-positive E. coli C3 = experiment: microbe, parasite or virus in culture; parameters: MIC of meropenem alone before serial passage (passage 0); conditions: Escherichia coli, read-out: MICs of MEM, - DSF
Description: To learn more about whether the addition of DSF contributes to preventing the development of antibiotic resistance, we carried out the serial passage assays in an NDM- or MCR-positive bacteria after exposure to meropenem/colistin, DSF and their combination. […] The mutation prevention index (MPI) was determined via the equation of MPC/MIC, which represents the opening of the mutant selection window (MSW, concentration range between MIC and MPC). When the MSW is narrower, drug-resistant strains are less likely to develop.

NDM-5 = target: T2, NDM-5 (Escherichia coli, UniProt G3K399); experiment: purified NDM-[…]) enzyme inhibition assay, absorbance at […] nm; format: biochemical
T2 construct: gene blaNDM-5

E. coli CP131 (mcr-3) = test system: T3, E. coli CP131 (mcr-3); experiment: microbe, parasite or virus in culture; parameters: broth microdilution MIC of antibiotic alone (checkerboard assay); conditions: Escherichia coli; colistin alone
T3 construct: CP131 (mcr-3)
Source text: as §1, with “Enterobacteriaceae. […] These NDM-positive Gram-negative pathogens carry blaNDM-1 or blaNDM-5 gene and are meropenem-resistant with MICs of 16-32 µg/mL. […] To explore the synergistic bactericidal activity of this combination, time-dependent killing curves for different MCR-positive Gram-negative bacteria were also determined.” for “Enterobacteriaceae.”

[2] = test system: T4, K. pneumoniae D120 (mcr-8); experiment: microbe, parasite or virus in culture; parameters: broth microdilution MIC of antibiotic alone (checkerboard assay); conditions: Klebsiella pneumoniae; colistin alone
T4 construct: D120 (mcr-8)
Source text: as §1, with “Enterobacteriaceae. […] These NDM-positive Gram-negative pathogens carry blaNDM-1 or blaNDM-5 gene and are meropenem-resistant with MICs of 16-32 µg/mL. […] To explore the synergistic bactericidal activity of this combination, time-dependent killing curves for different MCR-positive Gram-negative bacteria were also determined.” for “Enterobacteriaceae.”

S. enterica ATCC 13076 = test system: T5, S. enterica ATCC 13076; experiment: microbe, parasite or virus in culture; parameters: broth microdilution MIC of antibiotic alone (checkerboard assay); conditions: Salmonella enterica, ATCC13076; colistin alone
T5 construct: ATCC 13076
Source text: as §1, with “Enterobacteriaceae. […] These NDM-positive Gram-negative pathogens carry blaNDM-1 or blaNDM-5 gene and are meropenem-resistant with MICs of 16-32 µg/mL. […] To explore the synergistic bactericidal activity of this combination, time-dependent killing curves for different MCR-positive Gram-negative bacteria were also determined.” for “Enterobacteriaceae.”

E. coli ATCC 25922 = test system: T6, E. coli ATCC 25922; experiment: microbe, parasite or virus in culture; parameters: broth microdilution MIC of antibiotic alone (checkerboard assay); conditions: Escherichia coli, ATCC25922; colistin alone
T6 construct: ATCC 25922
Source text: as §1, with “Enterobacteriaceae. […] These NDM-positive Gram-negative pathogens carry blaNDM-1 or blaNDM-5 gene and are meropenem-resistant with MICs of 16-32 µg/mL. […] To explore the synergistic bactericidal activity of this combination, time-dependent killing curves for different MCR-positive Gram-negative bacteria were also determined.” for “Enterobacteriaceae.”

E. coli G92 (mcr-1) = test system: T7, E. coli G92 (mcr-1); experiment: microbe, parasite or virus in culture; parameters: broth microdilution MIC of antibiotic alone (checkerboard assay); conditions: Escherichia coli; colistin alone
T7 construct: G92 (mcr-1)
Source text: as §1, with “Enterobacteriaceae. […] These NDM-positive Gram-negative pathogens carry blaNDM-1 or blaNDM-5 gene and are meropenem-resistant with MICs of 16-32 µg/mL. […] To explore the synergistic bactericidal activity of this combination, time-dependent killing curves for different MCR-positive Gram-negative bacteria were also determined.” for “Enterobacteriaceae.”

E. coli DH5α (PUC19) = test system: T8, E. coli DH5α (PUC19); experiment: microbe, parasite or virus in culture; parameters: broth microdilution MIC of antibiotic alone (checkerboard assay); conditions: Escherichia coli; colistin alone
T8 construct: DH5α (pUC19)
Source text: as §1, with “Enterobacteriaceae. […] These NDM-positive Gram-negative pathogens carry blaNDM-1 or blaNDM-5 gene and are meropenem-resistant with MICs of 16-32 µg/mL. […] To explore the synergistic bactericidal activity of this combination, time-dependent killing curves for different MCR-positive Gram-negative bacteria were also determined.” for “Enterobacteriaceae.”

E. coli B2 [3] = test system: T1, E. coli B2; experiment: microbe, parasite or virus in culture; parameters: broth microdilution MIC of antibiotic alone (checkerboard assay); conditions: Escherichia coli, antibiotic alone
Source text: as §1, with “Enterobacteriaceae. […] These NDM-positive Gram-negative pathogens carry blaNDM-1 or blaNDM-5 gene and are meropenem-resistant with MICs of 16-32 µg/mL. […] To explore the synergistic bactericidal activity of this combination, time-dependent killing curves for different MCR-positive Gram-negative bacteria were also determined.” for “Enterobacteriaceae.”

T2 sequence (G3K399 29-270 limits assumed): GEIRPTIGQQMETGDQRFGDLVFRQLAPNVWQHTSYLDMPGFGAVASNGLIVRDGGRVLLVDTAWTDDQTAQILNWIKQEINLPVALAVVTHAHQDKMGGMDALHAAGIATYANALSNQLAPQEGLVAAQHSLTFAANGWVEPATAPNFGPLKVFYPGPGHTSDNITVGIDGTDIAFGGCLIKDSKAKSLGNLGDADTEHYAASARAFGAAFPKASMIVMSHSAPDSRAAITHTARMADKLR

## CN(C)c1cc(NC(=O)CNC(C)(C)C)c(O)c2c1C[C@H]1C[C@H]3[C@H](N(C)C)C(O)=C(C(N)=O)C(=O)[C@@]3(O)C(O)=C1C2=O [Tigecycline]
E. coli B2 [1]
  MIC: 0.5 µg/mL

## C[C@@H](O)[C@H]1C(=O)N2C(C(=O)O)=C(S[C@@H]3CN[C@H](C(=O)N(C)C)C3)[C@H](C)[C@H]12 [Meropenem]
E. coli B2 [1]
  MIC: 32 µg/mL
NDM-positive E. coli C3
  MIC: 8 µg/mL

## CCN(CC)C(=S)SSC(=S)N(CC)CC [disulfiram]
NDM-5
  IC50: 95.5 µM

## CCC(C)CCCC(=O)N[C@@H](CCN)C(=O)N[C@H](C(=O)N[C@@H](CCN)C(=O)N[C@H]1CCNC(=O)[C@H]([C@@H](C)O)NC(=O)[C@H](CCN)NC(=O)[C@H](CCN)NC(=O)[C@H](CC(C)C)NC(=O)[C@@H](CC(C)C)NC(=O)[C@H](CCN)NC1=O)[C@@H](C)O (stereo partly drawn) [Colistin] ({Heptanoyl(5-Me)}-[Dab]T[Dab][Dab][Dab][dL]L[Dab][Dab]T; lactam 4-C)
E. coli CP131 (mcr-3)
  MIC: 2 µg/mL
[2]
  MIC: 4 µg/mL
S. enterica ATCC 13076
  MIC: 0.125 µg/mL
E. coli ATCC 25922
  MIC: 0.5 µg/mL
E. coli G92 (mcr-1)
  MIC: 4 µg/mL
E. coli DH5α (PUC19)
  MIC: 0.25 µg/mL
E. coli B2 [3]
  MIC: 8 µg/mL

## C[C@H]1c2cccc(O)c2C(=O)C2=C(O)[C@]3(O)C(=O)C(C(N)=O)=C(O)[C@@H](N(C)C)[C@@H]3[C@@H](O)[C@@H]21 [Doxycycline]
E. coli B2 [1]
  MIC: 32 µg/mL

## CO[C@H]1/C=C/O[C@@]2(C)Oc3c(C)c(O)c4c(O)c(c(/C=N/N5CCN(C)CC5)c(O)c4c3C2=O)NC(=O)/C(C)=C\C=C\[C@H](C)[C@H](O)[C@@H](C)[C@@H](O)[C@@H](C)[C@H](OC(C)=O)[C@@H]1C [Rifampicin]
E. coli B2 [1]
  MIC^a: 128 µg/mL

## CN[C@H](CC(C)C)C(=O)N[C@H]1C(=O)N[C@@H](CC(N)=O)C(=O)N[C@H]2C(=O)N[C@H]3C(=O)N[C@H](C(=O)N[C@H](C(=O)O)c4cc(O)cc(O)c4-c4cc3ccc4O)[C@H](O)c3ccc(c(Cl)c3)Oc3cc2cc(c3O[C@@H]2O[C@H](CO)[C@@H](O)[C@H](O)[C@H]2O[C@H]2C[C@](C)(N)[C@H](O)[C@H](C)O2)Oc2ccc(cc2Cl)[C@H]1O [Vancomycin]
E. coli B2 [1]
  MIC: 64 µg/mL
